In patent US20110076331A1, “Use of Deuterium Oxide as an Elastase Inhibitor” (priority 2008, published 2011):

Key:
Syrian Gold hamsters = assay: D2O instillation in an animal model of COPD (HNE-induced hemorrhage); type: in vivo, hamster
Experimental: To investigate the effect of D2O in a model for chronic obstructive pulmonary disease (COPD) male Syrian Gold hamsters (average weight 118 g±4 g) were divided into two groups (experimental group and control group) of 10 hamsters each. The animals of both groups were initially anesthetized intraperitoneally (ketamine 95 mg/kg and xylazine 17 mg/kg) and then intubated endotracheally with direct laryngoscopy. The experimental group received 250 μL of 0.9% NaCl solution based on D2O (98.5% deuterium enrichment) instilled, whereas 250 μL of a corresponding isotonic NaCl solution based on H2O was used in the control group. Each animal received after the end of this instillation a second instillation at a time interval of 30 minutes, which was identical for both groups: 100 μL of human neutrophil elastase (HNE, 500 μg/mL in sterile 0.9% NaCl solution). The animals were killed 4 hours (six animals per group) or 24 hours (four animals per group) after the last instillation (phenobarbital 70 mg/kg intraperitoneally).
For the animals killed 4 hours after instillation a BAL (bronchoalveolar lavage) was performed. 2.5 mL 0.9% NaCl solution was repeatedly instilled (total 3 times) for BAL and the hemoglobin concentration in the instillate then determined spectrophotometrically. The obtained value was used as a gauge for lung damage (hemorrhage) by human neutrophil elastase (HNE). For the control group an average hemoglobin value of 320±50 mOD (milli-optical density) was obtained. For the experimental group an average hemoglobin value of 170±20 mOD was measured.
For the animals killed 24 hours after instillation the lungs were removed, fixed in formalin and embedded in paraffin. Histologic longitudinal sections of the lungs in the direction of the lung hilus were prepared, stained and made visible with iron by means of an histochemical reaction (Berlin blue reaction), which serves as a gauge for the intensity of HNE-induced hemorrhage. The microscopic investigation of the sections gave the following result: […]

[1] = test system: white New Zealand rabbits; assay: Animal model for myocardial reperfusion damage (coronary artery ligature); type: in vivo, rabbit; conditions: intravenous D2O isotonic saline 15 minutes before or 25 minutes after reopening of the coronary artery; vs H2O-treated animals
Experimental: In an animal model for reperfusion damage a reduced blood supply to the heart muscle tissue was achieved by ligature of a coronary artery in male white New Zealand rabbits, which led to damage (Bidouard, J. P. et al.; SSR69071, an elastase inhibitor, reduces myocardial infarct size following ischemia reperfusion injury, Eur J Pharmacol. 2003; 461:49-52). By thoracotomy a side branch of the left coronary artery was closed by ligature for 30 minutes and then opened again in order to achieve reperfusion over 120 minutes. Before removal of the heart an ink bolus (pelican ink) was introduced to the ascending aorta. To investigate the effect of D2O on reperfusion damage the animals were divided into three groups of two animals each. Two groups received an intravenous treatment with D2O in the form of isotonic saline either 15 minutes before (experimental group 1) or 25 minutes after (experimental group 2) reopening of the coronary artery, the other group (control group) was treated with H2O as isotonic saline. After removal of the heart, unclamping of the aorta, formalin fixation and paraffin embedding the heart was investigated for homogeneity of ink distribution in the capillary system through three cross sections and by immunohistochemistry. The immunohistochemical detection of granulocytes occurred by a-naphthol chloroacetate esterase staining. […]

Wistar rats = assay: Animal model of infectious peritonitis (S. aureus ATCC 25923), peritoneal lavage; type: in vivo, rat; conditions: peritoneal lavage 4 hours after S. aureus, vs isotonic saline
Experimental: Male Wistar rats received a catheter for peritoneal dialysis and for induction of peritonitis and for further peritoneal dialysis. A purulent peritonitis was produced by introduction of a suspension of S. aureus ATCC 25923 (1×10^9 c.f.u. in 0.5 mL). After 4 hours peritoneal lavage was carried out either with isotonic saline or with isotonic […]. After the death of the animals, but at the latest after 24 hours, bacterial infestation and the inflammatory reaction in the peritoneum were investigated histologically.

[2] = test system: subjects with colds accompanied by severe nasal obstruction; assay: Decongestion of nasal mucosa (rhinomanometry); type: in vivo, human; conditions: one pump spray of D2O saline in each nostril
Experimental: Physiological saline was prepared from D2O (experiment group) and H2O (control group) and filled into a pump spray container as is ordinarily used to release nasal spray. Subjects with colds accompanied by severe nasal obstruction were divided into two groups of eight subjects each. Air flow through the nose was determined by rhinomanometry (initial value) in each subject right before treatment (after thorough removal of secretions). The subjects of the experimental group then each received one pump spray of D2O saline in each nostril, while the subjects of the control group received H2O saline instead in the same amount. Thirty and 60 minutes after application air flow was determined in each subject by rhinomanometry and the percent change of air flow relative to the initial value was calculated. From these values an average was formed for the verum and control groups (average percentage change in air flow <Lf%>). A positive value of <Lf%> indicates an increase, a negative value a reduction in air flow. For the experimental group after 30 minutes a value of <Lf%>=20±5% and after 60 minutes <Lf%>=90±10% was obtained. The control group gave <Lf%>=10±5% after 30 minutes and <Lf%>=5±5% after 60 minutes.

[3] = test system: subjects with acute sinusitis; assay: Aerosol inhalation in acute sinusitis (rhinoendoscopy); type: in vivo, human; conditions: D2O aerosol with 150 mM NaCl inhaled for 15 minutes
Experimental: Aerosols from D2O and H2O each mixed with 150 mM NaCl were prepared according to example 2. Subjects with acute sinusitis in the maxillary sinus area were divided into two groups. The experimental group inhaled the D2O aerosol for 15 minutes, the control group the H2O aerosol. During inhalation the subjects were relied on to inhale through the nose as much as possible. Every 3 hours after inhalation a rhinoendoscopic examination of the sinuses was conducted.

[4] = test system: patients with Wegener's disease; assay: D2O infusions in Wegener's granulomatosis (open study); type: in vivo, human; conditions: 500 mL isotonic saline prepared with 70% D2O infused once a day over a week in addition to individual therapy; vs conventionally treated patients
Experimental: Activation of neutrophil granulocytes is assigned importance in the pathogenesis of Wegener granulomatosis. The disease activity can be determined by determining proteinase 3-antineutrophil cytoplasmic antibodies (PR3-ANCA).
In patients with Wegener's disease in an open study the effect of additional infusion of 500 mL of an isotonic saline solution prepared with 70% D2O was investigated once a day over a week in addition to individual systemic therapy in five patients. Determination of PR3-ANCA in the serum before and after 1 week after the last D2O infusion served as control parameter. Five patients in whom individual therapy was used exclusively without additional infusions served as comparison. […] This permits the conclusion that systemic use of D2O for adjunctive therapy of systemic vasculites is suitable.

[2H]O[2H] [D2O, deuterium oxide]
average hemoglobin value in BAL (Syrian Gold hamsters; 250 μL 0.9% NaCl solution based on D2O instilled 30 minutes before HNE, animals killed 4 hours after instillation): 170±20 mOD | blue-stained cells in lung sections (Berlin blue reaction), intensity of HNE-induced hemorrhage (Syrian Gold hamsters; animals killed 24 hours after instillation, vs H2O control group): significantly smaller number of blue-stained cells | inhibition of the acute lung damage caused by elastase (hemorrhage) (Syrian Gold hamsters; instillation, from reduction in hemoglobin concentration in BAL vs H2O control group, 4 hours): 47% | heart muscle damage (granulocytes, capillary ink marking) [1]: significantly lower heart muscle damage | inflammatory activity in the peritoneum (Wistar rats; histology): lower inflammatory activity | number of bacteria in the quantitative culture (Wistar rats): reduced number of bacteria | average percentage change in air flow <Lf%> ([2]; after 30 minutes): 20±5% | average percentage change in air flow <Lf%> ([2]; after 60 minutes): 90±10% | mucosal swelling ([3]; vs H2O aerosol control group): significant reduction of mucosal swelling | outflow of secretion ([3]; vs control group): improved outflow of secretion | PR3-ANCA values in the serum [4]: stronger reduction of PR3-ANCA values
